Assay results reported in ChEMBL document CHEMBL1201862, “PubChem BioAssay data set” (2004).
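Cells were grown in 96-well plates and exposed to each compound for 48 hours at five concentrations; endpoints were interpolated linearly between bracketing concentrations, or set to the highest concentration if not reached. GI50 marks 50% less growth.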 Active and inactive are the calls of the source. No stated cut-off is given here; in the data, active = GI50 up to about 1.1 µM and inactive = higher.

Columns and labels:
Test in all cases: DTP human tumour cell line panel, 48 h
[1] = test system: A498
[2] = test system: RXF 393
[3] = test system: UACC-257
[4] = test system: SF-539
[5] = test system: M14
[6] = test system: EKVX
[7] = test system: HT-29
[8] = test system: NCI-H226
[9] = test system: CAKI-1
[10] = test system: MOLT-4
[11] = test system: SK-MEL-5
[12] = test system: Hs-578T
[13] = test system: SK-OV-3
[14] = test system: HL-60
[15] = test system: DU-145
[16] = test system: IGROV-1
[17] = test system: TK-10
[18] = test system: KM12
[19] = test system: SK-MEL-2
[20] = test system: SF-268

SMILES | GI50 [1] | GI50 [2] | GI50 [3] | GI50 [4] | GI50 [5] | GI50 [6] | GI50 [7] | GI50 [8] | GI50 [9] | GI50 [10] | GI50 [11] | GI50 [12] | GI50 [13] | GI50 [14] | GI50 [15] | GI50 [16] | GI50 [17] | GI50 [18] | GI50 [19] | GI50 [20]
Cc1c(NC(=O)Nc2c(Cl)cccc2Cl)c(=O)n(-c2ccccc2)n1C | > 100 µM (inactive) | > 100 µM (inactive) | > 100 µM (inactive) | > 100 µM (inactive) | > 100 µM (inactive) | > 100 µM (inactive) | > 100 µM (inactive) | > 100 µM (inactive) | > 100 µM (inactive) | > 100 µM (inactive) | > 100 µM (inactive) | > 100 µM (inactive) | > 100 µM (inactive) | > 100 µM (inactive) | > 100 µM (inactive) | > 100 µM (inactive) | > 100 µM (inactive) | > 100 µM (inactive) | > 100 µM (inactive) | > 100 µM (inactive)
CCN(CC)c1ccc2cc(-c3nnc(-c4ccccc4)o3)c(=O)oc2c1 | 45.9 µM (inactive) | 14.5 µM (inactive) | 32.5 µM (inactive) | 13 µM (inactive) | 32.1 µM (inactive) | 59.8 µM (inactive) | 25.4 µM (inactive) | 29.4 µM (inactive) | > 45.7 µM (inactive) | 0.413 µM (active) | 29.5 µM (inactive) | > 84.9 µM (inactive) | 14.7 µM (inactive) | 16.6 µM (inactive) | 66.2 µM (inactive) | 28.9 µM (inactive) | 25.4 µM (inactive) | 46.7 µM (inactive) | 19.9 µM (inactive) | 28 µM (inactive)
O=[N+]([O-])c1ccc(NS(=O)(=O)C(F)(F)F)cc1 | > 100 µM (inactive) | > 100 µM (inactive) | > 100 µM (inactive) | > 100 µM (inactive) | > 100 µM (inactive) | > 100 µM (inactive) | > 100 µM (inactive) | > 100 µM (inactive) | > 100 µM (inactive) | > 100 µM (inactive) | > 100 µM (inactive) | > 100 µM (inactive) | > 100 µM (inactive) | > 100 µM (inactive) | > 100 µM (inactive) | 85.1 µM (inactive) | > 100 µM (inactive) | > 100 µM (inactive) | > 100 µM (inactive) | > 100 µM (inactive)
C=CCN1C(N)=C(C#N)C(C#N)(C#N)C1CCC (stereo not given) | > 100 µM (inactive) | > 100 µM (inactive) | > 100 µM (inactive) | > 100 µM (inactive) | > 100 µM (inactive) | 47.4 µM (inactive) | > 100 µM (inactive) | > 100 µM (inactive) | > 100 µM (inactive) | > 100 µM (inactive) | 81.7 µM (inactive) | > 100 µM (inactive) | > 100 µM (inactive) | > 100 µM (inactive) | > 100 µM (inactive) | > 100 µM (inactive) | > 100 µM (inactive) | > 100 µM (inactive) | > 100 µM (inactive) | > 100 µM (inactive)
CSc1ncc2c(n1)-c1ccccc1OC2 | 13.3 µM (inactive) | 41.5 µM (inactive) | > 100 µM (inactive) | 37.7 µM (inactive) | 45.4 µM (inactive) | 34.3 µM (inactive) | 40.4 µM (inactive) | 67 µM (inactive) | 19.4 µM (inactive) | 50 µM (inactive) | 53.1 µM (inactive) | 26.5 µM (inactive) | > 100 µM (inactive) | 38.9 µM (inactive) | 39.4 µM (inactive) | 34.4 µM (inactive) | 45.1 µM (inactive) | > 100 µM (inactive) | > 100 µM (inactive) | 49.4 µM (inactive)
COc1ccccc1C[C@@H]1OC2(C=CC(=O)C=C2)O[C@H]1Cc1ccccc1OC | 16.9 µM (inactive) | 1.16 µM (inactive) | 8.11 µM (inactive) | 8.75 µM (inactive) | 7.5 µM (inactive) | 5.65 µM (inactive) | 9.02 µM (inactive) | 8.47 µM (inactive) | 10.3 µM (inactive) | 2.04 µM (inactive) | 8.99 µM (inactive) | 10 µM (inactive) | 11.4 µM (inactive) | 7.43 µM (inactive) | 18.4 µM (inactive) | 6.75 µM (inactive) | 9.06 µM (inactive) | 8.69 µM (inactive) | 9.29 µM (inactive) | 7.35 µM (inactive)
Cc1nc(C)c(C(=O)NNC(=O)Cc2ccccc2)cc1C(=O)NNC(=O)Cc1ccccc1 | > 100 µM (inactive) | > 100 µM (inactive) | > 100 µM (inactive) | > 100 µM (inactive) | > 100 µM (inactive) | > 100 µM (inactive) | > 100 µM (inactive) | > 100 µM (inactive) | > 100 µM (inactive) | > 100 µM (inactive) | > 100 µM (inactive) | > 100 µM (inactive) | > 100 µM (inactive) | > 100 µM (inactive) | > 100 µM (inactive) | > 100 µM (inactive) | > 100 µM (inactive) | > 100 µM (inactive) | > 100 µM (inactive) | > 100 µM (inactive)
COC(=O)C1=C(C(=O)OC)SC2(S1)C(C(=O)OC)=C(C(=O)OC)Sc1c2ss/c1=N/C(C)(C)C | 1.92 µM (inactive) | 0.541 µM (active) | 1.47 µM (inactive) | 1.27 µM (inactive) | 1.66 µM (inactive) | 1.49 µM (inactive) | 1.17 µM (inactive) | 3.18 µM (inactive) | 1.53 µM (inactive) | 0.417 µM (active) | 1.91 µM (inactive) | 4.32 µM (inactive) | 5.18 µM (inactive) | 0.753 µM (active) | 0.877 µM (active) | 1.4 µM (inactive) | 1.64 µM (inactive) | 1.57 µM (inactive) | 1.34 µM (inactive) | 1.86 µM (inactive)
COc1ccc(Oc2ccc3cc4c(cc3c2O)OCO4)c2cc(C)oc12 | 38.3 µM (inactive) | 15.7 µM (inactive) | 20.8 µM (inactive) | 20.2 µM (inactive) | 26.6 µM (inactive) | 28.7 µM (inactive) | 23.2 µM (inactive) | 25.4 µM (inactive) | 30.1 µM (inactive) | 14.3 µM (inactive) | 16.4 µM (inactive) | 37.7 µM (inactive) | 52.7 µM (inactive) | 25.1 µM (inactive) | 39.7 µM (inactive) | 37.8 µM (inactive) | 25.4 µM (inactive) | 28.3 µM (inactive) | 18.5 µM (inactive) | 36 µM (inactive)
FC(F)(F)c1ccc2c(c1)nc(Cc1ccc(Cl)c(Cl)c1)n2CC1CCCN2CCCCC12 (stereo not given) | 25.4 µM (inactive) | 23.6 µM (inactive) | 18.5 µM (inactive) | 18.9 µM (inactive) | 12.4 µM (inactive) | 21.2 µM (inactive) | 11.2 µM (inactive) | 26.5 µM (inactive) | 29.7 µM (inactive) | 37.4 µM (inactive) | 16.4 µM (inactive) | 10.9 µM (inactive) | 31.3 µM (inactive) | 17.5 µM (inactive) | 50.6 µM (inactive) | 21.2 µM (inactive) | 19.1 µM (inactive) | 24.4 µM (inactive) | 35.5 µM (inactive) | 27.8 µM (inactive)
